Drawing on PubChem BioAssay AID338 (DTP/NCI, 2004), this text covers T/C for 20 compounds.

Several values for one entry are separate records, joined by “and”; a condition that tells them apart may be missing. Equal values may be shown once. Toxic doses and inconclusive results are not listed. *1 amine or outer side, *2 acyl side, *3 side chain or, on linkers, in order; H or OH if unused. Where a SMILES comes first, the peptide text is derived from it. Bridges are numbered along the chain shown (N, C = ends). Roman numbers before positions name the chains, in order. [ ]: non-standard residue; d: D form. Actinocin(9to1) = Cc1c2oc3c(C)ccc(C(=O)[*:1])c3nc-2c(C(=O)[*:2])c(N)c1=O; aThr = C[C@H](O)[C@H](N)C(=O)O; NMeV = CN[C@H](C(=O)O)C(C)C; Sar = CNCC(=O)O

The test system of the assay is BDF1 mice, P388 leukemia (terephthalanilide-resistant), survival T/C. Kind of assay: NCI In Vivo Anticancer Drug Screen. Data for tumor model P388 Leukemia resistant to A Terephthalanilide; NSC 38280 (intraperitoneal) in B6D2F1 (BDF1) mice. Conditions: endpoint: median survival time, higher = longer survival. The protocol:
The antitumor activity of compounds was measured in mice bearing transplantable tumors. Survival or tumor size were measured and the results are expressed as the measurement made in the treated group (T) divided by the measurement made in the vehicle treated control group (C). The tumor model used in this assay is P388 Leukemia resistant to A Terephthalanilide; NSC 38280 (intraperitoneal) in B6D2F1 (BDF1) mice

Where [1] appears, read: dose: 200.0 mg/kg/injection, schedule: Q01DX010 (ip), vehicle: saline.
Setting [2] is: dose: 40.0 mg/kg/injection, schedule: Q01DX010 (ip), vehicle: saline.
The mark [3] stands for this setting: dose: 62.5 mg/kg/injection, schedule: Q01DX010 (ip), vehicle: saline.
Where [4] appears, read: dose: 125.0 mg/kg/injection, schedule: Q01DX010 (ip), vehicle: saline.
Where [5] appears, read: dose: 250.0 mg/kg/injection, schedule: Q01DX010 (ip), vehicle: saline.
The mark [6] stands for this setting: dose: 20.0 mg/kg/injection, schedule: Q01DX010 (ip), vehicle: saline.
Where [7] appears, read: dose: 80.0 mg/kg/injection, schedule: Q01DX010 (ip), vehicle: saline.
The mark [8] stands for this setting: dose: 2.5 mg/kg/injection, schedule: Q01DX010 (ip), vehicle: saline.
[9] abbreviates: dose: 10.0 mg/kg/injection, schedule: Q01DX010 (ip), vehicle: saline.
The mark [10] stands for this setting: dose: 5.0 mg/kg/injection, schedule: Q01DX010 (ip), vehicle: saline.
Where [11] appears, read: dose: 12.5 mg/kg/injection, schedule: Q01DX010 (ip), vehicle: saline.
Setting [12] is: dose: 25.0 mg/kg/injection, schedule: Q01DX010 (ip), vehicle: saline.
[13] abbreviates: dose: 100.0 mg/kg/injection, schedule: Q01DX010 (ip), vehicle: saline.

As for `C[C@]12C=CC(=O)C=C1CC[C@@H]1[C@@H]2C(=O)C[C@@]2(C)[C@H]1CC[C@]2(O)C(=O)CO`, the T/C (dose: 0.12 mg/kg/injection, schedule: Q01DX Z (sc), vehicle: steriod suspending solution) was 100 % of control; the T/C (dose: 12.5 mg/kg/injection, schedule: Q01DX Z (sc), vehicle: steriod suspending solution) was 104 % of control; the T/C (dose: 25.0 mg/kg/injection, schedule: Q01DX010 (sc), vehicle: steriod suspending solution) was 105 % of control; the T/C (dose: 25.0 mg/kg/injection, schedule: Q01DX Z (sc), vehicle: steriod suspending solution) was 100 % of control and 109 % of control; the T/C (dose: 50.0 mg/kg/injection, schedule: Q01DX Z (sc), vehicle: steriod suspending solution) was 100 % of control; the T/C (dose: 100.0 mg/kg/injection, schedule: Q01DX010 (sc), vehicle: steriod suspending solution) is 88 % of control. Also, where the note is “dose: 200.0 mg/kg/injection, schedule: Q01DX010 (sc), vehicle: steriod suspending solution”, the T/C was 88 % of control.
As to `O=C1C(NC(=O)C2CCCCC2)=C(N2CC2)C(=O)C(NC(=O)C2CCCCC2)=C1N1CC1`, the T/C under setting [1] is 90 % of control.
For `CC1CN=C(c2ccc(NC(=O)c3cccc(C(=O)Nc4ccc(C5=NCC(C)N5)cc4)c3)cc2)N1` (configuration not stated), the T/C is 100 % of control (dose: 12.0 mg/kg/injection, schedule: Q01DX010 (ip), vehicle: saline); 100 % of control (dose: 18.0 mg/kg/injection, schedule: Q01DX010 (ip), vehicle: saline); 100 % of control (dose: 27.0 mg/kg/injection, schedule: Q01DX010 (ip), vehicle: saline); 88 % of control under setting [2].
With `OCC1OC(n2cnc3c(Cl)ncnc32)C(O)C1O` (configuration not stated), the T/C under setting [3] was 94 % of control; the T/C under setting [4] is 100 % of control; the T/C under setting [5] was 90 % of control and 94 % of control; the T/C (dose: 500.0 mg/kg/injection, schedule: Q01DX010 (ip), vehicle: saline) is 90 % of control and 111 % of control.
For the compound `OCC1OC(n2cnc3c(=S)nc[nH]c32)C(O)C1O` (configuration not stated), the T/C runs as follows: under setting [6], 90 % of control and 111 % of control; under setting [2], 100 % of control and 105 % of control; under setting [7], 116 % of control; (dose: 160.0 mg/kg/injection, schedule: Q01DX010 (ip), vehicle: saline) 110 % of control.
`Nc1nc(=S)c2[nH]cnc2[nH]1`: the T/C (dose: 1.25 mg/kg/injection, schedule: Q01DX010 (ip), vehicle: saline) is 162 % of control; the T/C under setting [8] was 150 % of control and 175 % of control; the T/C under setting [9] is 112 % of control.
Consider `c1ccc(CNc2ncnc3[nH]ncc23)cc1`, for which the T/C runs as follows: (dose: 8.0 mg/kg/injection, schedule: Q01DX010 (ip), vehicle: saline) 90 % of control; (dose: 16.0 mg/kg/injection, schedule: Q01DX010 (ip), vehicle: saline) 90 % of control and 95 % of control; (dose: 32.0 mg/kg/injection, schedule: Q01DX010 (ip), vehicle: saline) 90 % of control and 100 % of control; (dose: 64.0 mg/kg/injection, schedule: Q01DX010 (ip), vehicle: saline) 90 % of control and 105 % of control.
Turning to `CN[C@H]1CCc2cc(OC)c(OC)c(OC)c2-c2ccc(OC)c(=O)cc21`, the T/C is, setting by setting: (dose: 0.63 mg/kg/injection, schedule: Q01DX010 (ip), vehicle: other) 94 % of control and 110 % of control; (dose: 1.25 mg/kg/injection, schedule: Q01DX010 (ip), vehicle: other) 100 % of control and 110 % of control; (dose: 2.5 mg/kg/injection, schedule: Q01DX010 (ip), vehicle: other) 100 % of control and 120 % of control; (dose: 5.0 mg/kg/injection, schedule: Q01DX010 (ip), vehicle: other) 88 % of control and 115 % of control.
As for `S=P(N1CCOCC1)(N1CC1)N1CC1`, the T/C is 105 % of control and 111 % of control under setting [8]; 94 % of control and 105 % of control under setting [10].
Regarding `O=c1[nH]c(=O)n(C2CC(O)C(CO)O2)cc1F` (configuration not stated), the T/C by setting is: under setting [10], 100 % of control; under setting [9], 90 % of control and 104 % of control; under setting [6], 90 % of control and 113 % of control; under setting [2], 104 % of control and 118 % of control; under setting [7], 159 % of control.
As to `CNc1nc(Nc2ccc(C3=NCCN3)cc2)nc(Nc2ccc(C3=NCCN3)cc2)n1`, the T/C (dose: 13.3 mg/kg/injection, schedule: Q01DX010 (ip), vehicle: saline) is 117 % of control; the T/C under setting [6] is 111 % of control; the T/C (dose: 30.0 mg/kg/injection, schedule: Q01DX010 (ip), vehicle: saline) was 117 % of control.
Turning to `O=C1CCC(N2C(=O)c3ccccc3C2=O)C(=O)N1` (configuration not stated), the T/C is 117 % of control (dose: 31.3 mg/kg/injection, schedule: Q01DX010 (ip), vehicle: saline); 100 % of control and 117 % of control under setting [3]; 100 % of control and 105 % of control under setting [4]; 90 % of control and 94 % of control under setting [5].
As for `Cc1c2oc3c(C)ccc(C(=O)N[C@@H]4C(=O)N[C@H](C(C)C)C(=O)N5CCC[C@H]5C(=O)N(C)CC(=O)N(C)[C@@H](C(C)C)C(=O)O[C@H]4C)c3nc-2c(C(=O)N[C@@H]2C(=O)N[C@H](C(C)C)C(=O)N3CCC[C@H]3C(=O)N(C)CC(=O)N(C)[C@@H](C(C)C)C(=O)O[C@H]2C)c(N)c1=O` (I: [aThr][dV]P[Sar][NMeV] / II: [aThr][dV]P[Sar][NMeV]; ester I:1-I:C, II:1-II:C; linker I:N-II:N via Actinocin(9to1)), the T/C runs as follows: (dose: 12.5 micrograms/kg/injection, schedule: Q01DX010 (ip), vehicle: other) 111 % of control and 120 % of control; (dose: 25.0 micrograms/kg/injection, schedule: Q01DX010 (ip), vehicle: other) 116 % of control and 120 % of control; (dose: 50.0 micrograms/kg/injection, schedule: Q01DX010 (ip), vehicle: other) 120 % of control and 122 % of control; (dose: 100.0 micrograms/kg/injection, schedule: Q01DX010 (ip), vehicle: other) 115 % of control and 122 % of control.
In the case of `O=NN(CCCl)C(=O)NCCCl`, the T/C (dose: 6.25 mg/kg/injection, schedule: Q01DX010 (ip), vehicle: saline) was 225 % of control and 245 % of control; the T/C under setting [11] was 215 % of control and 300 % of control; the T/C under setting [12] was 110 % of control.
On to `O=C(Nc1ccc(C2=NCCN2)cc1)c1ccc(C(=O)Nc2ccc(C3=NCCN3)cc2)c(NC(=O)c2ccc(C(=O)Nc3cc(C(=O)Nc4ccc(C5=NCCN5)cc4)ccc3C(=O)Nc3ccc(C4=NCCN4)cc3)cc2)c1`, for which the T/C runs as follows: under setting [12], 100 % of control; (dose: 50.0 mg/kg/injection, schedule: Q01DX010 (ip), vehicle: saline) 94 % of control; under setting [13], 94 % of control; under setting [1], 100 % of control.
For `CN(C)c1nc(N(C)C)nc(N(C)C)n1`, the T/C is, setting by setting: (dose: 18.8 mg/kg/injection, schedule: Q01DX010 (ip), vehicle: saline) 100 % of control and 116 % of control; (dose: 37.5 mg/kg/injection, schedule: Q01DX010 (ip), vehicle: saline) 100 % of control and 105 % of control; (dose: 75.0 mg/kg/injection, schedule: Q01DX010 (ip), vehicle: saline) 100 % of control and 111 % of control; (dose: 150.0 mg/kg/injection, schedule: Q01DX010 (ip), vehicle: saline) 100 % of control and 105 % of control.
As for `N=[N+]=CC(=O)OCC(N)C(=O)O` (configuration not stated), the T/C is, setting by setting: under setting [11], 115 % of control and 116 % of control; under setting [12], 88 % of control.
Consider `COc1cc(-c2ccc(Nc3ccccc3C(=O)O)c(OC)c2)ccc1Nc1ccccc1C(=O)O`, for which the T/C is, setting by setting: (dose: 67.0 mg/kg/injection, schedule: Q01DX010 (ip), vehicle: saline) 159 % of control; under setting [13], 159 % of control.
Turning to `CC(=O)Nc1ccc2nc3ccc(NC(C)=O)cc3[n+](-c3ccccc3)c2c1`, the T/C is, setting by setting: (dose: 7.8 mg/kg/injection, schedule: Q01DX010 (ip), vehicle: saline) 90 % of control; (dose: 15.6 mg/kg/injection, schedule: Q01DX010 (ip), vehicle: saline) 90 % of control.
Regarding `O=C(Nc1ccc(NC(=O)Nc2ccc(C3=NCCN3)cc2)cc1)Nc1ccc(C2=NCCN2)cc1`, under “dose: 110.0 mg/kg/injection, schedule: Q01DX010 (ip), vehicle: saline”, the T/C is 111 % of control.
